In US11555010B2, “Diamide antimicrobial agents” (BROWN UNIVERSITY, priority 2019, dated 2023):
Converted amounts (≈) assume the structure as drawn.

Tests used:
E. Coli [1] = assay: Resazurin antimicrobial MIC assay; settings: Escherichia coli, read-out: Apparent MIC Value
Method: The assay is performed in LB broth. Resazurin sodium salt powder is prepared in distilled water and filter sterilized at 0.001% (w/v) for MIC assays and at 0.01% (w/v) for single concentration assays. Compounds are first screened in MIC assays to assess whether growth inhibition is dependent on inhibitor concentration. The plates are incubated for 30 min under aerobic conditions. Growth controls containing no inhibitory compound, sterility controls without inoculation, and controls containing a known antibiotic, chloramphenicol, are also included. […] Minimum inhibitory concentration (MIC) was determined as the lowest drug concentration that prevented the color change from blue to pink. Inhibition was quantified by observation of color change. […] Inhibition was quantified by fluorescence readings from plate reader SAFIRE, Firmware: V 2.2008/02 Safire. […] Plates are held at 37° C. and fluorescence measurements are taken at 0, 5, 10, 20, 30, and 60 min after addition of dye. Lower fluorescence values correlate to greater degrees of inhibition.
Briefly, second passage cells of B. subtilis 11774 were grown in LB media and standardized to an OD600 nm=1.0. Diamides were analyzed via serial dilution into LB media in microtitre plates. […] MICs were read directly off the plate or via fluorescence (λex 560 nm, λem 590 nm). MICs were recorded as the lowest concentration that inhibited growth.

B. subtilis = assay: Resazurin antimicrobial MIC assay; assay type: cell-based; settings: Bacillus subtilis, read-out: Apparent MIC Value
Method: Bacillus subtilis ATCC 11775 was plated on agar from a 20% glycerol stock solution stored at −80′° C. Inoculated plates were then incubated at 37° C. under aerobic conditions for 16 hours. Single cultures were transferred to Nutrient Broth (NB) and cultured for 16 hours under the same conditions. […] The assay is performed in LB broth. […] Compounds are tested […] for their capacity to inhibit B. subtilis growth. In order to determine growth inhibition, a resazurin whole-cell assay was used (Kuhn, et al., 2014, Medchemcomm 5:1213-1217). Briefly, second-passage bacteria are incubated with inhibitor in a 96-well plate for four hours, then resazurin dye is added and color/fluorescence change is observed. The resazurin is naturally a blue color, but with reductive species produced during bacterial growth, it is reduced to resorufin, which appears pink. Resorufin is also fluorescent and can be measured by a plate-reader. The disclosures of each and every patent, patent application, and publication cited herein are hereby incorporated herein by reference in their entirety.

E. coli [2] = settings: cited from earlier work

Row | Compound | MIC (B. subtilis) | further results
1 | O=C(NC1CCCCC1)C(C1CCNCC1)N(C(=O)c1ccccc1I)C1CCCCC1 (stereo not shown) [Example 6, N-cyclohexyl-N-(2-(cyclohexylamino)-2-oxo-1-(piperidin-4-yl)ethyl)-2-iodobenzamide] |  | MIC (E. Coli [1]): 5 µM (≈ 2.76 µg/mL)
2 | CC(N)C(C(=O)NC1CCCCC1)N(C(=O)c1ccccc1I)C1CCCCC1 (stereo not shown) [Example 2] | 5 µM (≈ 2.56 µg/mL) | 
3 | CC1=N[C@@H]2[C@@H](O)[C@H](O)[C@@H](CO)O[C@@H]2S1 [NAG-thiazoline] |  | effect on the viability of E. coli (E. coli [2]): no effect
4 | NCC(C(=O)NC1CCCCC1)N(C(=O)c1ccccc1I)C1CCCCC1 (stereo not shown) [Example 3, N-(3-amino-1-(cyclohexylamino)-1-oxopropan-2-yl)-N-cyclohexyl-2-iodobenzamide] | 5 µM (≈ 2.49 µg/mL) | 
